The results in this text go back to patent publication US10617654B2, “Use of fenoterol and fenoterol analogues in the treatment of glioblastomas and astrocytomas” (priority 2010, dated 2020).

The procedure of data set [1]: Dose calculations (mg/kg) were based on the individual body weight measured on the day of treatment. Study duration for pharmacokinetic studies was 6 hours. […] Urine was collected for 0-6 hours and 6 to 24 hours from 3 rats in each treatment group.
In the two-compartment model, the drug distributes into two compartments, the central compartment and the tissue, or peripheral compartment. The central compartment represents the blood, extracellular fluid, and highly perfused tissues. The drug distributes rapidly and uniformly in the central compartment. A second compartment, known as the tissue or peripheral compartment, contains tissues in which the drug equilibrates more slowly. Drug transfer between the two compartments is assumed to take place by first-order processes.
The following abbreviations are utilized in Table 4 below: alpha—macro rate constant associated with the distribution phase; beta—macro rate constant associated with the elimination phase; A, B—zero time intercept associated with the alpha phase and beta phase, respectively; AUC—area under the curve; T1/2 (K10)—half-life associated with the rate constant K10; K10—elimination rate—rate at which the drug leaves the system from the central compartment; K12—rate at which drug enters tissue compartment from the central compartment; K21—rate at which drug enters central compartment from tissue compartment; V1—volume of distribution of the central compartment; V2—volume of distribution of the tissue compartment; Vss—volume of distribution at steady state; and Cl—clearance.

Data set [2] in a line: Brain and plasma analysis of [3H]-(R,R)-methoxyfenoterol after IV administration. The data set is classed as in vivo, male Sprague-Dawley rats. Conditions: rats, IV. The procedure:
An overview of the research study design for evaluating the brain-to-plasma distribution of [^3H]
(specific activity 57 Ci/mmol); vehicle was sterile saline, 0.9% sodium chloride, USP. Dose formulations were prepared on the day of the study. The amount of radioactivity in the dose formulation was determined by liquid scintillation. The study lasted for an hour and radioactivity levels in plasma and brain tissue were evaluated at the conclusion of the study. Approximately 5 mls of whole blood was collected. Blood samples were collected via cardiac puncture, transferred into a tube containing K3EDTA as the anticoagulant and kept on wet ice until processed to plasma. To generate plasma, samples were centrifuged within 15 minutes of collection at 2,500 RPM for 15 minutes at room temperature. Plasma was divided equally into three labeled cryovials and stored on ample dry ice until transferred to a freezer set at ≤−20° C. for storage until analysis. Duplicate aliquots were weighed and then combined with scintillation cocktail. The [^3H] radioactivity was determined on a liquid scintillation counter. Brain samples were snap frozen in liquid nitrogen and stored at ≤−70° C. until analysis. Whole brain tissue was homogenized and the weight of the homogenate was determined. Duplicate aliquots from the homogenate were weighed, solubilized and then combined with scintillation cocktail. The [^3H] radioactivity was determined on a liquid scintillation counter.

Another data set deals with 1321N1 xenograft. In words: 1321N1 xenograft implanted in the flank of SKID mice. The format is in vivo. Conditions: IP twice a day; day 3-10 30 mg/kg/day, day 10-42 50 mg/kg/day.
[3] abbreviates: rats, 5 mg/kg intravenous, two-compartment open model.

Where “and” joins values, the source holds several entries; their conditions need not be identical. Equal entries are not always repeated. Where two headings read alike, the source gives them in different places.

As usually defined, the AUC is concentration integrated over time. In the case of `COc1ccc(C[C@@H](C)NC[C@H](O)c2cc(O)cc(O)c2)cc1.O=C(O)/C=C/C(=O)O` [(R,R)-2, (R,R)-(−)-1-p-Methoxyphenyl-2-(β-3′,5′-dihydroxy-phenyl-β-oxy)ethylamino-propane Fumarate], the Individual plasma concentration in data set [1] (individual rat, 5 mg/kg IV, 300 min, listed as (R,R)-methoxyfenoterol) is 0.06 ug/ml and 0.07 ug/ml (3×) and 0.09 ug/ml. Also, in data set [1] (rats, 5 mg/kg IV), the “systemic exposure (AUC) compared to (R,R)-fenoterol” value was “significantly higher”. Besides, the “Plasma concentration, Average” value in data set [1] (rats, 5 mg/kg IV, 15 min) is 580 ng/mL; in data set [1] (rats, 5 mg/kg IV, 30 min), 410 ng/mL; in data set [1] (rats, 5 mg/kg IV, 60 min), 260 ng/mL; in data set [1] (rats, 5 mg/kg IV, 120 min) it was 170 ng/mL; in data set [1] (rats, 5 mg/kg IV, 240 min), 120 ng/mL; in data set [1] (rats, 5 mg/kg IV, 300 min), 70 ng/mL. In addition, the “Plasma concentration, Average” value in data set [1] (rats, 5 mg/kg IV, 360 min) was 60 ng/mL. For the same compound, in data set [1] (setting [3]), the “A (zero time intercept, alpha phase)” value stood at 4.6437 µg/mL. The compound also had an AUC in data set [1] (setting [3]) of 96.1011 µg·min/mL. Besides, in data set [1] (setting [3]), the “B (zero time intercept, beta phase)” value is 0.3900 µg/mL. In data set [2], the “passage through the blood brain barrier” value is “capable of passing through the blood brain barrier”. Besides, the “growth of 1321N1 xenograft” value in the data set with 1321N1 xenograft was “inhibit growth”.
